“Also recorded” adds a separate entry of the source. Read-outs that look alike come from different tables or passages of the source.
What was measured:
BCRP [1] = molecular target: T1, BCRP (Homo sapiens, UniProt Q9UNQ0); assay: 3H-SN-38 uptake in HT29 SN-38 resistant cell monolayers (Example 6); assay type: cell-based; settings: 25 μM test compound, HT29 SN-38 resistant, ANOVA α=0.05
T1 construct: endogenous in cells; host or cells: HT29 parental and HT29 SN38-resistant colorectal cancer cells
T1 sequence (Q9UNQ0 1-655): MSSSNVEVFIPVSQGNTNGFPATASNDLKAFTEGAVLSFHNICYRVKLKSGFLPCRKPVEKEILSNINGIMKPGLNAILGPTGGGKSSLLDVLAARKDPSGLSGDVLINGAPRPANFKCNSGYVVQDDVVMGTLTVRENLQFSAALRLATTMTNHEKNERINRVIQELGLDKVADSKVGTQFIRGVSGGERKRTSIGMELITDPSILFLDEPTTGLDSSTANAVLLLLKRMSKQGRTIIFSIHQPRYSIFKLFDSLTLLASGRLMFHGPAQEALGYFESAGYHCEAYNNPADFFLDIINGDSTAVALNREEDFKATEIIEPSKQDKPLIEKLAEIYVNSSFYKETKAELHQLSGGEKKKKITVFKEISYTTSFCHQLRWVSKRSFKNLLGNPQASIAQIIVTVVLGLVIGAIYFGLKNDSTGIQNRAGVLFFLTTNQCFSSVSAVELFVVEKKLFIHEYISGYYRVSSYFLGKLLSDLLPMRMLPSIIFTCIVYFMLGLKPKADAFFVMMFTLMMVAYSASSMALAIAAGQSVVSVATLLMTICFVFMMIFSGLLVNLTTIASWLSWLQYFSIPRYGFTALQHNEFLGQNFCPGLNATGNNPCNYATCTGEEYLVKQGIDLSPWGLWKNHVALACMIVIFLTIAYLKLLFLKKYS
Experimental: (§1) All treatments were investigated in three technical replicates (N=3). On the day of experimentation, the culture media was exchanged with 100 μL transport buffer (HBSS, 0.05% BSA, 10 mM HEPES, pH 7.4) and cells were incubated for 15 minutes at 37° C.
(§2) Subsequently, the blank transport buffer was exchanged with 50 μL transport buffer containing the different compounds (in 2x of the final concentration) to be tested and incubated for 15 minutes at 37° C. The uptake experiment was started by adding 50 μL of ^3H-SN38 at a concentration of 2 μCi/mL to all wells (the resulting concentration of ^3H-SN38 during the experiment was 1 μCi/mL). The uptake experiment was stopped after 15 minutes of incubation at 37° C. by removing the transport buffer from all wells.
(§3) The cell monolayers were subsequently washed twice by adding/removing ice-cold transport buffer twice and finally the cell monolayers were lysed by incubation in 100 μl of 0.1% TritonX-100 for 15 minutes at ambient temperature. Cell lysates were transferred to scintillation vials containing 2 mL of scintillation fluid (Ultima Gold, PerkinElmer). Each well was washed with 2×100 μL purified water (milliQ), which was also transferred to respective scintillation vials.

BCRP [2] = molecular target: T1, BCRP; assay: 3H-SN-38 uptake in HT29 parental cell monolayers (Example 6); assay type: cell-based; settings: 25 μM test compound; HT29 parental; ANOVA α=0.05
Experimental: as §1, §2, §3

[3] = Irinotecan (Camptosar) Norm 125 mg/m2, NO SCO-101 (n = 99), literature value; cited from earlier work
[4] = SN-38 and irinotecan PK in patients with 100 or 150 mg SCO-101 and FOLFIRI versus literature (Example 7); settings: for AUC Mean (SD) / Cmax Mean (SD): Irinotecan (FOLFIRI) Norm 125 mg/m2, add-on 150 mg SCO-101 (n = 10)
[5] = SN-38 PK profile and tolerability in metastatic colorectal cancer patients treated with SCO-101 and FOLFIRI (Example 2); assay type: in vivo, human
Experimental: Patients with metastatic colorectal cancer were included in a study and treated with a combination of SCO-101 and FOLFIRI (combination of irinotecan, 5-FU and leucovorin) in 14 day treatment cycles. Patients received varying doses of Irinotecan between 50% and 80% of the recommended dose of Irinotecan (180 mg/m^2) according to their individual tolerability, which is standard practise. On days 1, 2, 3, 4, 5 and 6 in each treatment cycle, patients received one fixed daily dose of 150 mg SCO-101 taken in the morning at least 30 minutes before ingestion of food. On day 5 to 7, patients received FOLFIRI as specified for Colorectal cancer combination regimen 2.
Blood plasma samples were analysed for concentrations of SCO-101, irinotecan and SN-38 using Liquid Chromatography with Tandem Mass Spectrometric Detection (LC-MS/MS) bioanalytical method calibrated and validated in the rant 300 to 90.000 ng/ml. The method and system, including validation were according to industry standard. Data were analysed using commercially available software such as Win-Non-Lin (available from Certara inc.)
A trial was setup to address the safety, tolerability, and efficacy of SCO-101 given orally for 6 days followed by FOLFIRI at varying doses from day 5 to 7, in a biweekly schedule, in patients with metastatic colorectal cancer who have formerly been treated with FOLFIRI and afterwards progressed. The first part of the study was a dose-finding study, where the impact of SCO-101 on the pharmacokinetics (PK) of SN-38 was studied.
12 patients from the dose-finding part of the study received 150 mg SCO-101 for 6 days and […] of the recommended dose of FOLFIRI. 6 of the patients had RAS wildtype tumors and these patients were subjected to further analysis.
Blood for pharmacokinetic analysis was sampled from the patients were taken at 1, 2, 4, 8, 24, 48, and 96 hours after treatment with FOLFIRI and SCO-101.

[6] = FIG. 1A, cited from earlier work
[7] = SN-38, 90 mg/m2 irinotecan + SCO-101 vs 180 mg/m2 standard

Row | SMILES | Uptake of SN-38 relative to blank HBSS transport buffer control (BCRP [2]) | AUC Mean (SD) [3] [ng·h/mL] | Cmax Mean (SD) [3] [ng/mL] | AUC Mean (SD) [4] [ng·h/mL] | Cmax Mean (SD) [4] [ng/mL] | Uptake of SN-38 relative to blank HBSS transport buffer control (BCRP [1]) | also measured
1 | Nc1ncnc2n[nH]c(Nc3ccc(F)cc3)c12 [CGP57380] | significant increase | – | – | – | – | – | Uptake of SN-38 relative to blank HBSS transport buffer control (BCRP [1]; listed as CGP5738): not different
2 | CCc1c2c(nc3ccc(OC(=O)N4CCC(N5CCCCC5)CC4)cc13)-c1cc3c(c(=O)n1C2)COC(=O)[C@]3(O)CC [Irinotecan] | – | 10529 | 1492 | 12565 | 1457 | – | –
3 | CCc1c2c(nc3ccc(O)cc13)-c1cc3c(c(=O)n1C2)COC(=O)[C@]3(O)CC [SN-38] | – | 267 | 27.8 | 2088 | 86 | – | Fold increase (study vs Standard) of AUC_0-24 [5, 7]: 3.7; Fold increase (study vs Standard) of Cmax [5, 7]: 1.5; Fold increase (study vs Standard) of T½ [5, 7]: 1.6; half-life ([5]; human, plasma, intravenous, SN-38 study: 150 mg SCO-101 + FOLFIRI, normalized to irinotecan 90 mg/m2, day 5, read-out: T½ hours (SD) (converted)): 19 h; AUC(0-t) ([5]; human, plasma, intravenous, SN-38 study: 150 mg SCO-101 + FOLFIRI, normalized to irinotecan 90 mg/m2, read-out: AUC_0-24 h*ng/ml (SD)): 1420 ng·h/mL; SN-38 plasma Cmax ([6]; conventional irinotecan regime 180 mg/m^2, no SCO-101, public reference data): about 25 ng/ml; Time after which SN-38 plasma concentration becomes therapeutically ineffective ([6]; conventional irinotecan regime 180 mg/m^2): about 24 hours; Fold increase in AUC of SN-38 vs 125 mg/m2 irinotecan administered alone ([4]; 100 mg SCO-101): approximately 5 fold; Fold increase in AUC of SN-38 vs 125 mg/m2 irinotecan administered alone ([4]; 150 mg SCO-101): ~8 fold
4 | O=C(Nc1cc(C(F)(F)F)ccc1N1CCCCC1)c1ccncc1 [Srpin340] | significant increase | – | – | – | – | significantly increased; also recorded: significant increase | –
5 | Cc1cc(Nc2cc(N)ncn2)c(=O)n2c1C(=O)NC21CCCCC1 [Tomivorsetib] | significant increase | – | – | – | – | significantly increased; also recorded: significant increase | –

From patent publication US20250262188A1, “Methods of Increasing the Plasma Drug Exposure of Anticancer Agents” (Scandion Oncology A/S, priority 2021, published 2025)
